Results as given in patent US9695198B2, “Factor IXa inhibitors” (MERCK SHARP & DOHME CORP., priority 2012, dated 2017).
Like-named read-outs stand apart in the source and are kept apart here.

Target: Factor IXa (Homo sapiens, UniProt P00740)
Experiment: Determination of inhibitory activity against Factor IXa (cleavage of fluorescent peptide CH3SO2-D-CHG-Gly-Arg-AFC)
Format: biochemical
Details: low enzyme format, read-out: FIXa Low Enzyme
Protocol: Determination of Inhibitory Activity Against Factor IXa
Formation of a clot to stem bleeding at a site of blood vessel injury involves the coordinated activity of a group of plasma proteins that initiate and propagate fibrin formation and subsequently protect fibrin from premature degradation. Factor IX is a key component of the plasma system that forms a fibrin clot at a site of vascular injury. The activity of Factor IXa is measured by monitoring the cleavage of the fluorescent peptide, CH3SO2-D-CHG-Gly-Arg-AFC.AcOH (“CHG” is cyclohexyl-glycine and “AFC” is trifluoro aminomethyl coumarin). Factor IXa cleaves the amide bond between Arg and AFC, thereby releasing the AFC fluorophore. The free AFC can be detected with a fluorescence detector at an excitation wavelength of 405 nm and emission wavelength of 510 nm.

Sequence of Factor IXa (P00740 227-461 limits assumed): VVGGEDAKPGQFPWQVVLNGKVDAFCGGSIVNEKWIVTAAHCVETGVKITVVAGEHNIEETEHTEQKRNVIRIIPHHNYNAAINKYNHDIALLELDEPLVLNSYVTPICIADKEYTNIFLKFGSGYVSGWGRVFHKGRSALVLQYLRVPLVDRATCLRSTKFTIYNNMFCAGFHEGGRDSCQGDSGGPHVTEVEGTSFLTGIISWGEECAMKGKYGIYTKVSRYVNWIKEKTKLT
Sequence of Factor IXa (P00740 47-191 partner limits assumed): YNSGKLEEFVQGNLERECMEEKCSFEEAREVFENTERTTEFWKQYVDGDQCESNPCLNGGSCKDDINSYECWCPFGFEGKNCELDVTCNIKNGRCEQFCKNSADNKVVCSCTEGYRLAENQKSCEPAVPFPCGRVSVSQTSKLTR

Question: For `CC(O)(c1cccc(N2CCO[C@H]([C@@H](O)c3nc(=O)c4c(ccc5c(N)nsc54)[nH]3)C2=O)n1)C(F)(F)F` (stereo partly drawn) [Example 26, (2R)-2-((S)-(3-Amino-9-oxo-6,9-dihydroisothiazolo[5,4-f]quinazolin-7-yl)(hydroxy)methyl)-4-(6-(1,1,1-trifluoro-2-hydroxypropan-2-yl)pyridin-2-yl)morpholin-3-one], which IC50 (Factor IXa Inhibition table) is on record?
Answer: 19.3 nM

Question: With `Nc1nccc2cc3[nH]c([C@H](O)[C@H]4OCCN(c5ccn(-c6ccncc6)n5)C4=O)nc(=O)c3cc12` [Example 28, (R)-2-((S)-(6-Amino-4-oxo-1,4-dihydropyrido[3,4-g]quinazolin-2-yl)(hydroxy)methyl)-4-(1-(pyridin-4-yl)-1H-pyrazol-3-yl)morpholin-3-one] as the compound, how does the IC50 (table of additional examples) read?
Answer: 27.6 nM
